The numbers were not newly measured in US8047146B2, “Subsurface soil injection apparatus and method” (priority 2001, dated 2011), which cites them from elsewhere.

The conditions of series [1]: rapidly photodegrades in light.

Values after ≈ are worked out from the molar mass of the structure shown.

Consider `CI` [Iodomethane, iodomethane], for which the solubility in water was 14.2 mg/mL (≈ 100 mM). Besides, the “lifetime in the atmosphere” value in series [1] is 1.5 to 4 days.
